Assay in all cases: NCI tumour cell line growth inhibition, 48 h
Assay [1] deals with MOLT-4 leukemia.
The subject of assay [2] is LXFL 529 NSCLC.
For assay [3], the system named is DLD-1 colon.
Assay [4] deals with M19-MEL melanoma.
Assay [5] concerns HOP-18 NSCLC.
In assay [6] the test system is XF 498 CNS.
For assay [7], the system named is DMS 273 small cell lung.
Assay [8] relates to SF-539 CNS.
Assay [9] has as its system PC-3 prostate.
The test system of assay [10] is DMS 114 small cell lung.
Assay [11] concerns NCI-H460 lung.
Assay [12] relates to SNB-78 CNS.
The test system of assay [13] is OVCAR-3 ovarian.
Assay [14] deals with KM20L2 colon.
Assay [15] concerns CAKI-1 renal.
The test system of assay [16] is RXF-631 renal.

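Grown in 96-well plates, cells were treated for 48 hours with each compound at five concentrations. Insufficient inhibition: endpoint recorded as highest concentration tested. The concentration for full growth arrest is given as TGI.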

Regarding `O=c1cc(-c2cccc(Br)c2)[nH]c2cc3c(cc12)OCO3`, the TGI in [1] was over 100 µM; in assay [2], 18.6 µM; in [3], 31.2 µM; in assay [4] it was over 100 µM; in assay [5] it was 46.7 µM; in [6] it was 14.5 µM. The TGI is 22.4 µM in [7]; 6.58 µM in [8]; over 100 µM in assay [9]; 11 µM in [10]; 24.8 µM in assay [11]; 20.5 µM in assay [12]. The molecule also returned a TGI in [13] of 9.5 µM.

Regarding `CCN1CCC(O)(/C=C/c2ccc(Cl)cc2)C(C(=O)/C=C/c2ccc(Cl)cc2)C1` (stereo not given), the TGI was over 100 µM in [1]; 28 µM in assay [2]; 33.8 µM in [3]; 92.9 µM in [4]; over 100 µM in assay [6]; 60.2 µM in assay [7]. Also, the TGI in [10] is over 100 µM; in assay [14], 99.3 µM; in assay [11] it was over 100 µM; in [12], over 100 µM; in assay [13] it was 40.2 µM.

On to `Cc1nc2c(s/c(=N\N)n2-c2ccccc2)c(=O)n1C`, for which the TGI in [1], in assay [2], in assay [15], in [4], in [6] and in assay [7] was over 100 µM throughout. Also, the TGI in assay [8], in [10], in assay [14], in assay [11] and in assay [12] was over 100 µM throughout.

Regarding `Cc1ccc(C(=O)C(C)N)cc1C` (stereo not given), the TGI in assay [1], in assay [2], in assay [15], in assay [3], in [4] and in assay [6] was over 100 µM in each case. The TGI in assay [16], in [8], in [10], in assay [14], in assay [11] and in [13] was over 100 µM in each case.

Turning to `C#CC1(O)CC(c2ccccc2)N(C)C(c2ccccc2)C1` (stereo not given), the TGI in [1], in [2], in [15], in assay [4], in assay [16] and in assay [7] was over 100 µM throughout. Besides, the TGI in assay [8], in [10], in [14], in assay [11], in [12] and in [13] was over 100 µM each time.

Regarding `O=c1[nH]c(Br)nc2c(N3CCCCC3)c[nH]c12`, the TGI in assay [1], in assay [2], in assay [15], in [3], in assay [4] and in assay [5] was over 100 µM in each case. In addition, the TGI in assay [6], in assay [7], in assay [8], in assay [10], in assay [14] and in [11] was over 100 µM each time. Further, the TGI in assay [12] and in [13] was over 100 µM in each case.

As to `COc1cc2c(cc1OC)C(=O)N1CCCC1C(=O)S2` (stereo not given), the TGI in assay [1], in assay [2], in [3], in [5], in [6] and in assay [7] was over 100 µM in each case. The TGI in assay [8], in assay [10], in assay [14], in assay [11], in [12] and in assay [13] was over 100 µM each time.

In the case of `Cc1ccc(C)c(C(=N)c2ccccc2Cc2ccccc2)c1`, the TGI in [1] is 38.2 µM; in [15], over 100 µM; in [8], 33.8 µM; in assay [9], over 100 µM; in [11], 33.2 µM; in assay [13], 27.2 µM.

In the case of `CC1(C)N=C(N)N=C(N)N1CCCCc1ccccc1`, the TGI in [1] is over 91.6 µM; in assay [15], over 100 µM; in assay [8], 32.4 µM; in assay [9] it was over 77 µM; in assay [11], over 100 µM; in assay [13], over 36.8 µM.

Consider `CCCCn1c2c(n(CCCC)c1=[Se])-c1c(n(CCCC)c(=[Se])n1CCCC)S[Se][Se]S2`, for which the TGI in [1] was over 90.6 µM; in assay [15], 17.7 µM; in [8] it was 42.8 µM; in assay [9], 34.7 µM; in assay [11] it was 29 µM; in assay [13] it was 25 µM.

Consider `COC1=CC(=O)C2C(C1=O)[C@@H]1c3ccccc3OC[C@H]21` (stereo not given in full), for which the TGI in assay [1], in [2], in [15], in assay [3], in [5] and in [7] was over 100 µM in each case. In addition, the TGI in assay [8], in assay [10], in assay [14], in [11], in [12] and in assay [13] was over 100 µM each time.

In the case of `O=C(N1CCN(c2ccccc2)CC1)N(C(=O)C1(c2ccc(Cl)cc2)CCCC1)S(=O)(=O)c1ccccc1`, the TGI in assay [1] is 59.1 µM; in [15], 71.4 µM; in assay [8], 49.7 µM; in assay [9], 76.1 µM; in assay [11], over 100 µM; in assay [13] it was 82.6 µM.

For the molecule `Fc1ccc(C(OCCN2CCC3CCC(C2)N3C/C=C/c2cccnc2)c2ccc(F)cc2)cc1` (stereo not given), the TGI in assay [1] came to 14.9 µM; in assay [15], 26.1 µM; in assay [8], 25.2 µM; in assay [9] it was 21.8 µM; in assay [11] it was 30.6 µM; in [13], 29.5 µM.

For `O=C(CC(C(=O)c1cccs1)c1ccccc1)c1ccccc1O` (stereo not given), the TGI was over 38.4 µM in assay [1]; over 67.3 µM in assay [15]; over 100 µM in assay [8]; over 100 µM in assay [9]; over 100 µM in assay [11]; over 100 µM in assay [13].

Turning to `O=C(CSCC(=O)N/N=C/c1ccncc1)N/N=C/c1ccncc1`, the TGI in assay [1], in [15], in assay [8], in [9], in assay [11] and in [13] was over 100 µM throughout.

On to `CC(=O)NC1=CC(=O)C=C(Cl)C1=O`, for which the TGI was 50.9 µM in assay [1]; over 100 µM in assay [15]; over 100 µM in assay [8]; over 100 µM in assay [9]; over 100 µM in assay [11]; over 100 µM in assay [13].

Take `Nc1nc2c(ncn2CC(CO)CC(c2ccccc2)P(=O)(O)O)c(=O)[nH]1` (stereo not given): the TGI in assay [1], in assay [2], in assay [15], in assay [3], in [4] and in assay [5] was over 100 µM each time. The TGI in [6], in assay [7], in [8], in assay [10], in assay [14] and in assay [11] was over 100 µM throughout. In addition, the TGI in assay [12] and in assay [13] was over 100 µM throughout.

Turning to `Nc1ccc2c(c1)S(=O)(=O)c1cc(N)ccc1-2`, the TGI in assay [1], in assay [15], in assay [8], in [9], in assay [11] and in [13] was over 100 µM each time.

The record behind these values is PubChem BioAssay (NCI).
